Measured values published in PMC9669016, “First-in-human phase Ia study of the PI3Kα inhibitor CYH33 in patients with solid tumors” (Nature Communications, 2022).
Read-outs that look alike come from different tables or passages of the source.

Assay: Clinical pharmacokinetics: plasma CYH33 and I27 by LC/MS/MS
Assay type: in vivo, human
Settings: for AUC(0-t) / Cmax / Tmax / concentration at 0.5 h / concentration at 24 h / concentration at 72 h / concentration at 4 h / concentration at 12 h / concentration at 0 h / AUC(0-inf) / half-life: human, plasma; for AUC(0-inf): read-out: AUC0-∞, mean (CV%)
Method: The PK characteristics of CYH33 and its active metabolite I27 were evaluated after single and multiple dose administrations. PK data were obtained from 37 patients from 7 dose cohorts: 1 mg (n = 1), 5 mg (n = 1), 10 mg (n = 2), 20 mg (n = 6), 30 mg (n = 12), 40 mg (n = 13), and 60 mg (n = 2). Intensive and sparse PK sampling was performed. Prior to initiating a continuous daily treatment cycle, the first 5 patients participated in a single dose PK treatment period with a 7-day washout in order to determine the terminal-phase half-life (t1/2) of CYH33 and its active metabolite I27. Based on the single dose PK data for CYH33 of the first 5 patients at doses of 1, 5, 10 and 20 mg, the PK and metabolic characteristics of CYH33 and I27 were evaluated. Combined with the pre-specified rules in the protocol and deliberation from the SMC, subsequent patients directly entered the continuous dose phase.
Blood samples for PK evaluation were collected at: (1) during the single dose phase: on day 1 pre-dose and 0.5, 1, 2, 4, 8, 12, 24, 36, 48, and 72 h post-dose; (2) during the continuous dose phase: C1D1/Cycle 1 Day 28 pre-dose, and 0.5, 1, 2, 3, 4, 6, 8, 12, and 24 h post-dose; and C1D8/Day 15 pre-dose. Plasma concentrations of CYH33 and I27 were analyzed using a liquid chromatography-tandem mass spectrometry (LC/MS/MS) assay (Shimadzu Corporation, LC-30AD) with a lower limit of quantification (LLOQ) of 2.585 ng/mL and 1.0 ng/mL for CYH33 and I27, respectively. […] Blood samples for measuring the FBG level were collected within 30 min before dosing on C1D1, C1D15, and on the first day of subsequent treatment cycles.

[1] = CYH33, Cycle 1 Day 28, 1 mg (n=1)
[2] = CYH33, Cycle 1 Day 28, 5 mg (n=1)
[3] = CYH33, Cycle 1 Day 28, 10 mg (n=2)
[4] = CYH33, Cycle 1 Day 28, 20 mg (n=6)
[5] = CYH33, Cycle 1 Day 28, 30 mg (n=9)
[6] = CYH33, Cycle 1 Day 28, 40mg (n=7)
[7] = CYH33, Cycle 1 Day 28, 60 mg (n=2)

## COC(=O)Nc1cc(C(F)(F)F)c(-c2nc(N3CCOCC3)c3cc(CN4CCN(S(C)(=O)=O)CC4)cn3n2)cn1 [CYH33, methyl (5-(6-((4-(methylsulfonyl)piperazin-1-yl)methyl)−4-morpholinopyrrolo[2,1-f][1,2,4]triazin-2-yl)−4-(trifluoromethyl)pyridin-2-yl)carbamate]
[1]
  Cmin, mean: 0 ng/mL
  Rac_AUC, mean: 2.0
  Rac_Cmax, mean: 1.0
[2]
  CLss/F, mean: 8.6 L/h
  Cmin, mean: 15.1 ng/mL
  Rac_AUC, mean: 2.2
  Rac_Cmax, mean: 2.3
[3]
  CLss/F, mean: 8.2 L/h
  Cmin, mean: 33.4 ng/mL
  Rac_AUC, mean: 2.0
  Rac_Cmax, mean: 1.8
[4]
  CLss/F, mean: 8.1 L/h
  Cmin, mean: 80.8 ng/mL
  Rac_AUC, mean: 4.2
  Rac_Cmax, mean: 3.3
[5]
  CLss/F, mean: 11.0 L/h
  Cmin, mean: 111.4 ng/mL
  Rac_AUC, mean: 2.9
  Rac_Cmax, mean: 1.9
[6]
  CLss/F, mean: 11.8 L/h
  Cmin, mean: 126.5 ng/mL
  Rac_AUC, mean: 4.3
  Rac_Cmax, mean: 3.2
[7]
  CLss/F, mean: 15.9 L/h
  Cmin, mean: 133.2 ng/mL
  Rac_AUC, mean: 3.2
  Rac_Cmax, mean: 2.2
Daily dosing
  average accumulation of exposure (AUC0-24h) at steady state vs Cycle 1 Day 1: around 2.9 fold
  time to steady state: ≤ 8 days
oral, 1 mg, CYH33, Cycle 1 Day 1, 1 mg (n = 1), read-out: AUC0-24h, mean (CV%)
  AUC(0-t): 26 ng·h/mL
oral, 1 mg, CYH33, Cycle 1 Day 1, 1 mg (n = 1), read-out: Cmax, mean (CV%)
  Cmax: 4.6 ng/mL
oral, 1 mg, CYH33, Cycle 1 Day 1, 1 mg (n = 1), read-out: Tmax, median (min-max)
  Tmax: 1 h
oral, 1 mg, CYH33, Cycle 1 Day 28, 1 mg (n=1), read-out: AUC0-24h, mean
  AUC(0-t): 51.6 ng·h/mL
oral, 1 mg, CYH33, Cycle 1 Day 28, 1 mg (n=1), read-out: Cmax, mean
  Cmax: 4.8 ng/mL
oral, 1 mg, CYH33, Cycle 1 Day 28, 1 mg (n=1), read-out: Tmax, median
  Tmax: 4 h
oral, 5 mg, CYH33, Cycle 1 Day 1, 5 mg (n = 1), read-out: AUC0-24h, mean (CV%)
  AUC(0-t): 266 ng·h/mL
oral, 5 mg, CYH33, Cycle 1 Day 1, 5 mg (n = 1), read-out: Cmax, mean (CV%)
  Cmax: 24.6 ng/mL
oral, 5 mg, CYH33, Cycle 1 Day 1, 5 mg (n = 1), read-out: Tmax, median (min-max)
  Tmax: 2 h
oral, 5 mg, CYH33, Cycle 1 Day 28, 5 mg (n=1), read-out: AUC0-24h, mean
  AUC(0-t): 582 ng·h/mL
oral, 5 mg, CYH33, Cycle 1 Day 28, 5 mg (n=1), read-out: Cmax, mean
  Cmax: 56.2 ng/mL
oral, 5 mg, CYH33, Cycle 1 Day 28, 5 mg (n=1), read-out: Tmax, median
  Tmax: 1 h
oral, 10 mg, CYH33, Cycle 1 Day 1, 10 mg (n = 2), read-out: AUC0-24h, mean (CV%)
  AUC(0-t): 624 ng·h/mL
oral, 10 mg, CYH33, Cycle 1 Day 1, 10 mg (n = 2), read-out: Cmax, mean (CV%)
  Cmax: 43.1 ng/mL
oral, 10 mg, CYH33, Cycle 1 Day 1, 10 mg (n = 2), read-out: Tmax, median (min-max)
  Tmax: 4 h
oral, 10 mg, CYH33, Cycle 1 Day 28, 10 mg (n=2), read-out: AUC0-24h, mean
  AUC(0-t): 1230 ng·h/mL
oral, 10 mg, CYH33, Cycle 1 Day 28, 10 mg (n=2), read-out: Cmax, mean
  Cmax: 78.9 ng/mL
oral, 10 mg, CYH33, Cycle 1 Day 28, 10 mg (n=2), read-out: Tmax, median
  Tmax: 3 h
oral, 20 mg, CYH33, Cycle 1 Day 1, 20 mg (n = 5), read-out: AUC0-24h, mean (CV%)
  AUC(0-t): 763 ng·h/mL
oral, 20 mg, CYH33, Cycle 1 Day 1, 20 mg (n = 5), read-out: Cmax, mean (CV%)
  Cmax: 56.3 ng/mL
oral, 20 mg, CYH33, Cycle 1 Day 1, 20 mg (n = 5), read-out: Tmax, median (min-max)
  Tmax: 2 h
oral, 20 mg, CYH33, Cycle 1 Day 28, 20 mg (n=6), read-out: AUC0-24h, mean
  AUC(0-t): 2630 ng·h/mL
oral, 20 mg, CYH33, Cycle 1 Day 28, 20 mg (n=6), read-out: Cmax, mean
  Cmax: 154 ng/mL
oral, 20 mg, CYH33, Cycle 1 Day 28, 20 mg (n=6), read-out: Tmax, median
  Tmax: 3 h
oral, 30 mg, CYH33, Cycle 1 Day 1, 30 mg (n = 12), read-out: AUC0-24h, mean (CV%)
  AUC(0-t): 1300 ng·h/mL
oral, 30 mg, CYH33, Cycle 1 Day 1, 30 mg (n = 12), read-out: Cmax, mean (CV%)
  Cmax: 96.5 ng/mL
oral, 30 mg, CYH33, Cycle 1 Day 1, 30 mg (n = 12), read-out: Tmax, median (min-max)
  Tmax: 3.5 h
oral, 30 mg, CYH33, Cycle 1 Day 28, 30 mg (n=9), read-out: AUC0-24h, mean
  AUC(0-t): 3530 ng·h/mL
oral, 30 mg, CYH33, Cycle 1 Day 28, 30 mg (n=9), read-out: Cmax, mean
  Cmax: 187 ng/mL
oral, 30 mg, CYH33, Cycle 1 Day 28, 30 mg (n=9), read-out: Tmax, median
  Tmax: 3 h
oral, 40 mg, CYH33, Cycle 1 Day 1, 40 mg (n = 3), read-out: AUC0-24h, mean (CV%)
  AUC(0-t): 1320 ng·h/mL
oral, 40 mg, CYH33, Cycle 1 Day 1, 40 mg (n = 3), read-out: Cmax, mean (CV%)
  Cmax: 97.9 ng/mL
oral, 40 mg, CYH33, Cycle 1 Day 1, 40 mg (n = 3), read-out: Tmax, median (min-max)
  Tmax: 2 h
oral, 40 mg, CYH33, Cycle 1 Day 28, 40mg (n=7), read-out: AUC0-24h, mean
  AUC(0-t): 3940 ng·h/mL
oral, 40 mg, CYH33, Cycle 1 Day 28, 40mg (n=7), read-out: Cmax, mean
  Cmax: 224 ng/mL
oral, 40 mg, CYH33, Cycle 1 Day 28, 40mg (n=7), read-out: Tmax, median
  Tmax: 4 h
oral, 60 mg, CYH33, Cycle 1 Day 1, 60 mg (n = 4), read-out: AUC0-24h, mean (CV%)
  AUC(0-t): 1870 ng·h/mL
oral, 60 mg, CYH33, Cycle 1 Day 1, 60 mg (n = 4), read-out: Cmax, mean (CV%)
  Cmax: 123 ng/mL
oral, 60 mg, CYH33, Cycle 1 Day 1, 60 mg (n = 4), read-out: Tmax, median (min-max)
  Tmax: 4 h
oral, 60 mg, CYH33, Cycle 1 Day 28, 60 mg (n=2), read-out: AUC0-24h, mean
  AUC(0-t): 4010 ng·h/mL
oral, 60 mg, CYH33, Cycle 1 Day 28, 60 mg (n=2), read-out: Cmax, mean
  Cmax: 220 ng/mL
oral, 60 mg, CYH33, Cycle 1 Day 28, 60 mg (n=2), read-out: Tmax, median
  Tmax: 2.5 h
oral, C1D1, 1 mg
  concentration at 0.5 h: 1.9 ng/mL
  concentration at 24 h: 0 ng/mL
oral, C1D1, 5 mg
  concentration at 0.5 h: 0 ng/mL
  concentration at 24 h: 5.9 ng/mL
  concentration at 72 h: 0 ng/mL
oral, C1D1, 10 mg
  concentration at 0.5 h: 14 ng/mL
  concentration at 4 h: 43.1 ng/mL
  concentration at 24 h: 17.4 ng/mL
  concentration at 72 h: 3.2 ng/mL
oral, C1D1, 20 mg
  concentration at 4 h: 43.9 ng/mL
  concentration at 12 h: 29.5 ng/mL
  concentration at 24 h: 22.3 ng/mL
  concentration at 72 h: 7.1 ng/mL
oral, C1D1, 30 mg
  concentration at 4 h: 81.2 ng/mL
  concentration at 12 h: 49.9 ng/mL
oral, C1D1, 40 mg
  concentration at 0.5 h: 33.8 ng/mL
  concentration at 24 h: 45.2 ng/mL
oral, C1D1, 60 mg
  concentration at 0.5 h: 21.9 ng/mL
  concentration at 24 h: 61.4 ng/mL
oral, C1D28, 1 mg
  concentration at 0 h: 0 ng/mL
oral, C1D28, 5 mg
  concentration at 0 h: 15.5 ng/mL
oral, C1D28, 10 mg
  concentration at 0 h: 34.8 ng/mL
oral, C1D28, 20 mg
  concentration at 0 h: 85.1 ng/mL
oral, C1D28, 30 mg
  concentration at 0 h: 113 ng/mL
  concentration at 24 h: 124 ng/mL
oral, C1D28, 40 mg
  concentration at 0 h: 141 ng/mL
oral, C1D28, 60 mg
  concentration at 0 h: 147 ng/mL
oral, CYH33, Cycle 1 Day 1, 1 mg (n = 1)
  AUC(0-inf): 36.8 ng·h/mL
oral, CYH33, Cycle 1 Day 1, 5 mg (n = 1)
  AUC(0-inf): 429 ng·h/mL
oral, CYH33, Cycle 1 Day 1, 5 mg (n = 1), read-out: t1/2, mean (CV%) (converted)
  half-life: 1150 min
oral, CYH33, Cycle 1 Day 1, 10 mg (n = 2)
  AUC(0-inf): 1090 ng·h/mL
oral, CYH33, Cycle 1 Day 1, 10 mg (n = 2), read-out: t1/2, mean (CV%) (converted)
  half-life: 1210 min
oral, CYH33, Cycle 1 Day 1, 20 mg (n = 5)
  AUC(0-inf): 2190 ng·h/mL
oral, CYH33, Cycle 1 Day 1, 20 mg (n = 5), read-out: t1/2, mean (CV%) (converted)
  half-life: 1250 min
po, dose range 1–60 mg, read-out: median time to maximum plasma concentration (Tmax)
  Tmax: 1 to 4 h
Oral CYH33, read-out: t1/2 (converted)
  half-life: ~1200 min
